The text below walks through data of US20220251084A1, “PROGRANULIN MODULATORS AND METHODS OF USING THE SAME” (ARKUDA THERAPEUTICS, priority 2019, published 2022).

Counter-ions that a name gives are not always drawn.

The first test relates to progranulin (PGRN) secretion, BV-2 cells. Kind of test: PGRN assay: progranulin induction cellular assay (ELISA of secreted mouse PGRN).
Details: not given
It counts as cell-based. As to the method: Cellular Assays: To measure the efficacy of compounds, a progranulin induction cellular assay in mouse primary microglia (pMG), primary cortical neurons, and BV-2 cell lines is used. BV-2 cells are split the day before plating into a 96 well plate format at approximately 80%. Cells should be plated the day before and allowed for 1 hour attachment period and for 16 hour incubation. […] Standard ELISA kits to measure PGRN are available from vendors such as Adipogen, R&D, and Biovendor.
(In general: In an ELISA, binding on a coated surface is turned into a signal by an enzyme label.)
As to `N#Cc1ccc2c(c1)[C@@H](c1ccc(F)cc1)N(C(=O)O[C@@H]1CN3CCC1CC3)CC2` [Compound 2036], the EC50 – broadly, the concentration needed to bring the measured effect to its halfway point – is > 10 µM.

As to `N#Cc1ccc2c(c1)[C@H](c1ccc(F)cc1)N(C(=O)O[C@@H]1CN3CCC1CC3)CC2` [Compound 2035], the EC50 was > 10 µM. With `CN1CCC([C@H]2c3ccccc3CCN2C(=O)O[C@@H]2CN3CCC2CC3)CC1=O` (stereo partly drawn) [Compound 2024, (S)-quinuclidin-3-yl 1-(1-methyl-2-oxopiperidin-4-yl)-3,4-dihydroisoquinoline-2(1H)-carboxylate], the EC50 is > 10 µM. Still for that read-out and setting: then `N#Cc1ccc2c(c1)CCN(C(=O)O[C@@H]1CN3CCC1CC3)[C@H]2c1ccc(F)cc1` [Compound 2033], with > 10 µM.

The test is the same for the next values; noted with them: Mus musculus, BV-2.
Regarding `CNC(=O)c1ccc2c(c1)CCN(C(=O)O[C@@H]1CN3CCC1CC3)[C@@H]2c1ccc(F)cc1` [Compound 2101], the EC50 was > 10 µM. Still for that read-out and setting: the figure for `COC(=O)c1ccc2c(c1)[C@H](c1ccc(F)cc1)N(C(=O)O[C@@H]1CN3CCC1CC3)CC2` [Compound 2029] is > 10 µM.

The test is the same for the next values; noted with them: Mus musculus, BV-2, PGRN assay, Table C; secreted mouse PGRN in cell culture medium, ELISA.
With `C#CCOc1ccc2c(c1)[C@H](c1ccc(F)cc1)N(C(=O)N[C@@H]1CN3CCC1CC3)CC2` [Compound 2115, (S)-1-(4-fluorophenyl)-7-(prop-2-yn-1-yloxy)-N—((S)-quinuclidin-3-yl)-3,4-dihydroisoquinoline-2(1H)-carboxamide], the midpoint of the response, the EC50, lay at 8.37 µM. Same read-out and setting: then `O=C(N[C@H]1CCCNC1)N1CCc2ccccc2[C@@H]1c1ccc(F)cc1` [Compound 2171], with 0.13 µM; and `CN1C2COCC1CC(OC(=O)N1CCc3ccccc3[C@@H]1c1ccc(F)cc1)C2` (stereo partly drawn) [Compound 2067, (1 S)-9′-methyl-3′-oxa-9′-azabicyclo[3.3.1]nonan-7′-yl-1-(4-fluorophenyl)-3,4-dihydroisoquinoline-2(1H)-carboxylate], with 0.24 µM. On to `O=C(OCC12CCN(CC1)CC2)N1CCc2ccccc2[C@H]1c1cc(F)cc(F)c1` (single isomer, unassigned) [Compound 2141, quinuclidin-4-ylmethyl-1-(3,5-difluorophenyl)-3,4-dihydroisoquinoline-2(1H)-carboxylate], for which the EC50 is > 10 µM. The same measure, in the same setting: the figure for `O=C1C[C@H](COC(=O)N2CCc3ccccc3[C@@H]2c2ccc(F)cc2)CCN1` (single isomer, unassigned) [Compound 2185, (1 S)-(2-oxopiperidin-4-yl)methyl 1-(4-fluorophenyl)-3,4-dihydroisoquinoline-2(1H)-carboxylate] is > 10 µM; for `O=C(OCC12CCN(CC1)CC2)N1CCc2ccccc2[C@H]1c1ccc(F)c(F)c1` [Compound 2111] it is 0.635 µM.

In turn, `O=C(OCC12CCN(CC1)CC2)N1CCc2ccccc2[C@@H]1c1cc(F)c(F)c(F)c1` [Compound 2147] showed an EC50 of 4.74 µM. Still for that read-out and setting: then `O=C(N1CCc2ccccc2[C@@H]1c1ccc(F)cc1)C(F)(F)C1(O)CN2CCC1CC2` (stereo partly drawn) [Compound 2198, 2,2-difluoro-1-((S)-1-(4-fluorophenyl)-3,4-dihydroisoquinolin-2(1H)-yl)-2-(3-hydroxyquinuclidin-3-yl)ethan-1-one], with > 10 µM; and `O=C(OCC12CCN(CC1)CC2)N1CCc2ccccc2[C@H]1c1ccc(OCc2ncccn2)cc1` [Compound 2156], with 0.713 µM; and `C#CCOc1ccc2c(c1)C(c1ccc(F)cc1)N(C(=O)OCC13CCN(CC1)CC3)CC2` (stereo in doubt) [Compound 2053, (S)-quinuclidin-4-ylmethyl 1-(4-fluorophenyl)-7-(prop-2-ynyloxy)-3,4-dihydroisoquinoline-2(1H)-carboxylate], with 5.74 µM. Same read-out and setting: the figure for `CN1C[C@@H]2[C@@H](COC(=O)N3CCc4ccccc4[C@@H]3c3ccc(F)cc3)[C@@H]2C1` [Compound 2023] is 1.18 µM; for `CNC(=O)c1ccc2c(c1)[C@H](c1ccc(F)cc1)N(C(=O)OCC13CCN(CC1)CC3)CC2` [Compound 2059] it is > 10 µM. Still for that read-out and setting: then `O=C(OCC1CCNCC1)N1CCc2ccccc2[C@@H]1c1ccc(F)cc1` [Compound 2170], with 1.59 µM; and `O=C([C@@H](O)CC12CCN(CC1)CC2)N1CCc2ccccc2[C@@H]1c1ccc(F)cc1` (single isomer, unassigned) [Compound 2153], with > 10 µM. Take `CS(=O)(=O)c1ccc2c(c1)CCN(C(=O)N[C@@H]1CN3CCC1CC3)[C@H]2c1ccc(F)cc1` [Compound 2040, 1-(4-fluorophenyl)-6-(methylsulfonyl)-N—((S)-quinuclidin-3-yl)-3,4-dihydroisoquinoline-2(1H)-carboxamide]: the EC50 was > 10 µM. Consider `O=S(=O)(CCN1CCc2ccccc2[C@@H]1c1ccc(F)cc1)C12CCN(CC1)CC2` [Compound 2131, (S)-4-((2-(1-(4-fluorophenyl)-3,4-dihydroisoquinolin-2(1H)-yl)ethyl)sulfonyl)quinuclidine], for which a half-maximal effect (EC50) was put at 4.19 µM. On the same count and under the same terms, then `CN1CCC2(CC1)CCN(C(=O)N1CCc3ccccc3[C@@H]1c1ccc(F)cc1)C2` [Compound 2121], with > 10 µM; and `COC(=O)c1ccc2c(c1)[C@H](c1ccc(F)cc1)N(C(=O)N[C@@H]1CN3CCC1CC3)CC2` [Compound 2116, methyl (S)-1-(4-fluorophenyl)-2-(((S)-quinuclidin-3-yl)carbamoyl)-1,2,3,4-tetrahydroisoquinoline-7-carboxylate], with > 10 µM; and `CNC(=O)c1ccc2c(c1)CCN(C(=O)N[C@@H]1CN3CCC1CC3)[C@H]2c1ccc(F)cc1` [Compound 2090], with > 10 µM. Same read-out and setting: the figure for `CNC(=O)c1ccc2c(c1)CCN(C(=O)N[C@@H]1CN3CCC1CC3)[C@@H]2c1ccc(F)cc1` [Compound 2091] is > 10 µM.

Consider `Fc1ccc(C2c3ccccc3CCN2C(C[C@@H]2CN3CCC2CC3)C(F)(F)F)cc1` (single isomer, unassigned) [Compound 2132], for which the EC50 came out at 3.07 µM. The same measure, in the same setting: the figure for `C#CCOc1ccc2c(c1)CCN(C(=O)NCC13CCN(CC1)CC3)[C@@H]2c1ccc(F)cc1` [Compound 2085] is 4.99 µM; for `CN1C[C@@H]2CC[C@H](OC(=O)N3CCc4ccccc4[C@@H]3c3ccc(F)cc3)[C@@H]2C1` (relative stereo) [Compound 2062, (1 S)-(rel-(3′aR,6′aS)-2′-methyloctahydrocyclopenta[c]pyrrol-4-yl)-1-(4-fluorophenyl)-3,4-dihydroisoquinoline-2(1H)-carboxylate] it is 1.12 µM.

For `CN1CCC(COC(=O)N2CCc3ccccc3[C@@H]2c2cc(F)cc(F)c2)CC1` [Compound 2108], the EC50 was > 3.16 µM. Still for that read-out and setting: the figure for `CN1CCC(CCOC(=O)N2CCc3ccccc3[C@@H]2c2ccc(F)cc2)CC1` [Compound 2163] is > 10 µM.

The same test, now with this note: Mus musculus, BV-2, PGRN assay, Table D; secreted mouse PGRN in cell culture medium, ELISA.
`N[C@H]1CCN(C(=O)N2CCc3ccccc3[C@@H]2c2ccc(F)cc2)C1` [Compound 2284] gave an EC50 of 0.806 µM. The compound `CN(C(=O)N1CCc2ccccc2[C@H]1c1ccc(F)cc1)[C@@H]1CCCNC1` (single isomer, unassigned) [Compound 2212] displayed an EC50 of 3.05 µM. The same measure, in the same setting: the figure for `O=C(O[C@H]1C[N@]2CC[C@H]1C2)N1CCc2ccccc2[C@@H]1c1ccc(F)cc1` [Compound 2204] is 0.65 µM; for `O=C(O[C@H]1CNCC1(F)F)N1CCc2ccccc2[C@@H]1c1ccc(F)cc1` [Compound 2241] it is 8.79 µM. The same measure, in the same setting: then `CN1CC[C@@H](OC(=O)N2CCc3ccccc3[C@@H]2c2ccc(F)cc2)C1` [Compound 2250, (R)-1-methylpyrrolidin-3-yl (S)-1-(4-fluorophenyl)-3,4-dihydroisoquinoline-2(1H)-carboxylate hydrochloride], with 0.1 µM; and `CN1C[C@@H](NC(=O)N2CCc3ccccc3[C@H]2c2ccc(F)cc2)C2(CC2)C1` (single isomer, unassigned) [Compound 2318], with 3.35 µM. On the same count and under the same terms, then `CN1CC[C@H](NC(=O)N2CCc3ccccc3[C@@H]2c2ccc(F)cc2)C1` [Compound 2237, (S)-1-(4-fluorophenyl)-N—((S)-1-methylpyrrolidin-3-yl)-3,4-dihydroisoquinoline-2(1H)-carboxamide], with 0.43 µM. `O=C(OC[C@@]1(F)CCNC1)N1CCc2ccccc2[C@@H]1c1ccc(F)cc1` (single isomer, unassigned) [Compound 2255] yielded an EC50 of 0.24 µM.

On to `CN1CC[C@@H](NC(=O)N2CCc3ccccc3[C@@H]2c2ccc(F)cc2)C1` [Compound 2245], for which a half-maximal effect (EC50) was put at 0.46 µM. This EC50 is about 1.9-fold higher than that of the compound before. Still for that read-out and setting: then `CN(C)[C@@H]1CCN(C(=O)N2CCc3ccccc3[C@@H]2c2ccc(F)cc2)C1` [Compound 2312], with 0.987 µM; and `O=C(N[C@@H]1CNCC12CC2)N1CCc2ccccc2[C@@H]1c1ccc(F)cc1` [Compound 2281], with 0.273 µM.

Consider `O=C(OCC1CNC1)N1CCc2ccccc2[C@@H]1c1ccc(F)cc1` [Compound 2246, Azetidin-3-ylmethyl (S)-1-(4-fluorophenyl)-3,4-dihydroisoquinoline-2(1H)-carboxylate 2,2,2-trifluoroacetate], for which it took 0.77 µM to reach a half-maximal effect (EC50).

Turning to `O=C(O[C@H]1CNC[C@H]1F)N1CCc2ccccc2[C@@H]1c1ccc(F)cc1` [Compound 2362], the EC50 is > 3.16 µM.

For the compound `N[C@@H]1CCN(C(=O)N2CCc3ccccc3[C@@H]2c2ccc(F)cc2)C1` [Compound 2287], the EC50 stood at 0.351 µM. On the same count and under the same terms, then `O=C(N1CC[C@@]2(CNCCO2)C1)N1CCc2ccccc2[C@H]1c1ccc(F)cc1` (single isomer, unassigned) [Compound 2323], with 8.87 µM.

Staying with this test, now noted: PGRN assay, Table C; secreted mouse PGRN in cell culture medium, ELISA.
Take `O=C(OC1CCNCC1)N1CCc2ccccc2[C@@H]1c1ccc(F)cc1` [Compound 2161]: the EC50 is > 10 µM.

Still in this test, the particulars now being: PGRN assay, Table D; secreted mouse PGRN in cell culture medium, ELISA.
Regarding `O=C(N[C@H]1CNCCOC1)N1CCc2ccccc2[C@@H]1c1ccc(F)cc1` (single isomer, unassigned) [Compound 2275], the EC50 amounted to 0.447 µM.
